Here are results for 13 molecules from US20240124467A1, “FUSED PYRIMIDINE COMPOUNDS AS INHIBITORS OF MENIN-MLL INTERACTION” (Biomea Fusion, Inc., priority 2020, published 2024).

What is called IC50 is the concentration that gives 50% inhibition.

Read-outs that look alike come from different tables or passages of the source.

What all share (assay type): cell-based
One assay concerns K-562. The experiment in a line: Cell proliferation inhibition (CellTiter-Glo), K-562 cells. Particulars: Homo sapiens, K-562 (BCR-ABL). The protocol:
(§1) The present example evaluates the ability of compounds described herein, inhibitors of Menin/MLL interaction, to inhibit cell proliferation. The proliferation inhibitory effect was investigated in human MLL-leukemia cells selected on the bases of MLL fusion proteins and listed in the table below.
(§2) ATP is present in all metabolically active cells and is considered as a marker for cell viability and proliferation. The metabolic cell activity was determined using the CellTiter-Glo kit from Promega, an ATP monitoring system based on the production of luminescence by the reaction of ATP with added UltraGlo® recombinant luciferase (Kawano et al., 2016, PLOS One, 8:11(7):e0158888), according to the supplier's experimental recommendations. The assay is based on a 96 well plate format. All experiments were carried out in duplicate in one test occasion.
(§3) Test items were dissolved at 20 mM in DMSO with purity ≥99.9% (Sigma catalog no. D8418) and stored at −20° C. Cells were maintained in RPMI-1640 medium (Invitrogen catalog no. 618700) supplemented with 10% of Heat Inactivated FBS (Invitrogen catalog no. 10500) and 1% Pen-Strep (Invitrogen catalog no. 15140) and cultured at 37° C. in a humidified incubator with 5% CO2. Cell lines were grown in suspension and the cell density was maintained in a range of 5×10^4-1×10^6 viable cells/ml where possible. Cells were pelleted at 130 g×5 min.
(§4) Serial dilutions of compounds 1 to 3 in DMSO 100% were prepared starting from a 2.5 mM solutions (prepared by diluting 1:8 the 20 mM stock solution) to generate a 7 point concentration response curve (CRC). Seven concentrations of test compounds (e.g., 5.00×10^−6-1.67×10^−6-5.56×10^−7-1.85×10^−7-6.17×10^−8-2.06×10^−8-6.86×10^−9 M) were assessed in duplicate in an individual test occasion in parallel in the selected cell lines. KO-539 was used as a reference compound and tested in duplicate at seven similar concentrations. 100% of proliferation was represented by the untreated cells (0.2% DMSO).
(§5) Cell proliferation inhibition was monitored at both the following end points: Day 4 (T4) and Day 7 (T7). For the appropriate cell density during the exponential cell growth and re-supply with fresh compound solution at T4, cells were diluted (1:4) with fresh medium containing the compound concentration (1×).
(§6) For each plate to test, one 0.4 μL copy plate and four 0.3 μL copy plates were stamped into 96-well plates not treated for cell adhesion (Sarstedt—cat. no. 82.1581.001) by acoustic liquid handling (Echo) at a concentration which was 500 fold the final assay concentration. Stamped plates were stored at −20° C.
(§7) On Day 0, the day of the experiment cell line suspensions were counted by Cell Viability Analyser, Vi-CELL (Beckman Coulter AY15292), and diluted with fresh medium to obtain the following cell densities: K-562 500 c/ml, MOLM-13 1,000 c/ml, MV4-11 10,000 c/ml, OCI-AML-3 500 c/ml, and U-937 500-1,000 c/ml. 200 μL/well and 150 μL/well of cell suspension were added into the 0.4 μL/well and 0.3 μL/well compound plates, respectively. Cell plate containing 200 μL/well suspension were incubated at 37° C. in a humidified incubator with 5% CO2. From each well of the 150 μL/well cell assay plate, 100 μL were harvested and transferred into a 96-well Optiplate (Perkin Elmer, cat. no. 6005290). Cell viability was measured as described below.
(§8) On Day 4, 150p/well of fresh medium was added into a new 0.3 μL/well copy compound plates. From each well of the 200 μL/well cell assay plate, 100 μL was sampled for the cell viability measurement as described below. 50p was harvested and added to the 150p/well compound plate prepared as described in the first point to dilute 1:4 the cell suspension. The cell assay plate diluted and containing 200 μL/well suspension was incubated at 37° C. in a humidified incubator with 5% CO2.
(§9) On Day 4, 150p/well of fresh medium was added into a new 0.3 μL/well copy compound plates. […]

Another assay relates to MOLM-13. The experiment in a line: Cell proliferation inhibition (CellTiter-Glo), MOLM-13 cells. The conditions noted are these: Homo sapiens, MOLM-13 (MLL-AF9). As to the method:
as §1, §2, §3, §4, §5, §6, §7, §8, §9
Background: In ATP-based viability assays light output follows the ATP content of the culture.

The test system of the next assay is MV4-11. The experiment in a line: Cell proliferation inhibition (CellTiter-Glo), MV4-11 cells. The conditions noted are these: Homo sapiens, MV4-11 (MLL-AF4). The protocol:
as §1, §2, §3, §4, §5, §6, §7, §8, §9

[1] abbreviates: K562, 96 h, Day 4, read-out: K-562 IC50 μM (Day 4).
[2] abbreviates: 96 h, Day 4, read-out: MOLM-13 Day IC50 μM (Day 4)*.
[3] abbreviates: 96 h, Day 4, read-out: MV-4:11 IC50 μM (Day 4)*.
Where [4] appears, read: K562, 168 h, Day 7, read-out: K-562 IC50 μM (Day 7)*.
Setting [5] is: 168 h, Day 7, read-out: MOLM-13 Day IC50 μM (Day 7)*.
Where [6] appears, read: 168 h, Day 7, read-out: MV-4:11 IC50 μM (Day 7)*.

Take `C=CC(=O)N[C@@H]1CCCN(C(=O)c2ccnc(CNc3ccc(-c4cc5c(N6CCOCC6)ncnc5[nH]4)cc3)c2)C1` [Compound B0700-561, (R)—N-(1-(2-(((4-(4-morpholino-7H-pyrrolo[2,3-d]pyrimidin-6-yl)phenyl)amino)methyl)isonicotinoyl)piperidin-3-yl)acrylamide]: the IC50 was more than 10 µM with K-562 (setting [1]), 1.63 µM in the assay with MOLM-13 (setting [2]) and 0.304 µM in the assay with MV4-11 (setting [3]).
As to `C=CC(=O)N[C@H]1CCCN(c2cccc(C(C)S(=O)(=O)Nc3ccc(-c4cc5c(N6CCOCC6)ncnc5[nH]4)cc3)c2)C1` (stereo partly drawn) [Compound B0700-565], the 50% inhibitory concentration (IC50) with K-562 (setting [1]) is more than 10 µM; in the assay with MOLM-13 (setting [2]), 1.03 µM; with MV4-11 (setting [3]), 0.274 µM.
As to `C=CC(=O)N[C@@H]1CCCN(Cc2ccnc(C(=O)Nc3ccc(-c4cc5c(N6CCC(O)CC6)ncnc5[nH]4)cc3)c2)C1` [Compound B0700-568], the concentration for half-maximal inhibition (IC50) in the assay on K-562 (setting [1]) is more than 10 µM; in the assay with K-562 (setting [4]), more than 10 µM; with MOLM-13 (setting [2]), 0.495 µM; in the assay on MOLM-13 (setting [5]), 0.924 µM; in the assay on MV4-11 (setting [3]), 0.419 µM; with MV4-11 (setting [6]), 0.34 µM.
Turning to `C=CC(=O)N[C@@H]1CCCN(Cc2ccnc(C(=O)Nc3ccc(-c4cc5c(N6CCC(C)(O)CC6)ncnc5[nH]4)cc3)c2)C1` [Compound B0700-569], the IC50 was more than 10 µM in the assay with K-562 (setting [1]); 9.87 µM with K-562 (setting [4]); 0.492 µM in the assay with MOLM-13 (setting [2]); 1.07 µM in the assay on MOLM-13 (setting [5]); 0.318 µM in the assay on MV4-11 (setting [3]); 0.37 µM in the assay with MV4-11 (setting [6]).
As to `[2H]C1([2H])OC([2H])([2H])C([2H])([2H])N(c2ncnc3[nH]c(-c4ccc(NC(=O)c5cc(CN6CCC[C@@H](NC(=O)C=C)C6)ccn5)cc4)cc23)C1([2H])[2H]` [Compound B0700-601, (R)-4-((3-acrylamidopiperidin-1-yl)methyl)-N-(4-(4-(morpholino-d8)-7H-pyrrolo[2,3-d]pyrimidin-6-yl)phenyl)picolinamide], the IC50 in the assay on K-562 (setting [1]) was more than 10 µM; in the assay on MOLM-13 (setting [2]) it was 0.282 µM; with MV4-11 (setting [3]) it was 0.397 µM.
Turning to `C=CC(=O)N[C@@H]1CCC[C@H](Nc2ccnc(C(=O)Nc3ccc(-c4cc5c(N6CCOCC6)ncnc5[nH]4)cc3)c2)C1` [Compound B0700-607, 4-(((1S,3R)-3-acrylamidocyclohexyl)amino)-N-(4-(4-morpholino-7H-pyrrolo[2,3-d]pyrimidin-6-yl)phenyl)picolinamide], the IC50 in the assay on K-562 (setting [1]) came to 2.96 µM; in the assay on K-562 (setting [4]), 3.47 µM; in the assay on MOLM-13 (setting [2]), 0.202 µM; with MOLM-13 (setting [5]) it was 0.349 µM; in the assay on MV4-11 (setting [3]), 0.398 µM; with MV4-11 (setting [6]), 0.43 µM.
As to `C=CC(=O)N1CCCC(N2CC[C@@H](C(=O)Nc3ccc(-c4cc5c(N6CCOCC6)ncnc5[nH]4)cc3)C2)C1` (stereo partly drawn) [Compound B0700-608, (3R)-1-(1-acryloylpiperidin-3-yl)-N-(4-(4-morpholino-7H-pyrrolo[2,3-d]pyrimidin-6-yl)phenyl)pyrrolidine-3-carboxamide], the half-inhibitory concentration (IC50) in the assay with K-562 (setting [1]) turned out to be 2.19 µM; in the assay with K-562 (setting [4]) it was 3.65 µM; in the assay on MOLM-13 (setting [2]), 0.197 µM; with MOLM-13 (setting [5]), 0.164 µM; with MV4-11 (setting [3]), 0.138 µM; in the assay with MV4-11 (setting [6]), 0.1 µM.
Turning to `C=CC(=O)N1CCC(N2CCC(S(=O)(=O)Nc3ccc(-c4cc5c(N6CCOCC6)ncnc5[nH]4)cc3)CC2)CC1` [Compound B0700-610, 1′-acryloyl-N-(4-(4-morpholino-7H-pyrrolo[2,3-d]pyrimidin-6-yl)phenyl)-[1,4′-bipiperidine]-4-sulfonamide], the IC50 in the assay with K-562 (setting [1]) is more than 10 µM; in the assay with K-562 (setting [4]) it was more than 10 µM; in the assay on MOLM-13 (setting [2]) it was 0.806 µM; in the assay on MOLM-13 (setting [5]), 0.458 µM; with MV4-11 (setting [3]) it was 0.487 µM; in the assay with MV4-11 (setting [6]), 0.29 µM.
For the molecule `C=CC(=O)N1CCCC(N2CCC(S(=O)(=O)Nc3ccc(-c4cc5c(N6CCOCC6)ncnc5[nH]4)cc3)C2)C1` (stereo not drawn) [Compound B0700-611, 1-(1-acryloylpiperidin-3-yl)-N-(4-(4-morpholino-7H-pyrrolo[2,3-d]pyrimidin-6-yl)phenyl)pyrrolidine-3-sulfonamide], the IC50 in the assay with K-562 (setting [1]) is more than 10 µM; in the assay on K-562 (setting [4]), more than 10 µM; in the assay with MOLM-13 (setting [2]), 0.963 µM; in the assay on MOLM-13 (setting [5]), 0.834 µM; with MV4-11 (setting [3]), 0.629 µM; in the assay on MV4-11 (setting [6]) it was 0.38 µM.
With `C=CC(=O)N1CCC(N2CCN(S(=O)(=O)Nc3ccc(-c4cc5c(N6CCOCC6)ncnc5[nH]4)cc3)CC2)CC1` [Compound B0700-612, 4-(1-acryloylpiperidin-4-yl)-N-(4-(4-morpholino-7H-pyrrolo[2,3-d]pyrimidin-6-yl)phenyl)piperazine-1-sulfonamide], the 50% inhibitory concentration (IC50) in the assay with K-562 (setting [1]) is more than 10 µM; in the assay on K-562 (setting [4]), more than 10 µM; in the assay on MOLM-13 (setting [2]), 2.85 µM; in the assay on MOLM-13 (setting [5]), 2.39 µM; in the assay on MV4-11 (setting [3]) it was 1.4 µM; in the assay on MV4-11 (setting [6]), 1.14 µM.
On to `C=CC(=O)N1CCC(N2CCN(C(=O)Nc3ccc(-c4cc5c(N6CCOCC6)ncnc5[nH]4)cc3)CC2)CC1` [Compound B0700-613, 4-(1-acryloylpiperidin-4-yl)-N-(4-(4-morpholino-7H-pyrrolo[2,3-d]pyrimidin-6-yl)phenyl)piperazine-1-carboxamide], for which the IC50 in the assay on K-562 (setting [1]) came to 6.04 µM; with K-562 (setting [4]) it was 11.2 µM; in the assay with MOLM-13 (setting [2]) it was 0.632 µM; in the assay on MOLM-13 (setting [5]), 0.477 µM; with MV4-11 (setting [3]) it was 0.495 µM; with MV4-11 (setting [6]) it was 0.47 µM.
For the molecule `C=CC(=O)N[C@@H]1CCCN(Cc2ccnc(C(=O)Nc3ccc(-c4cc5c(N6CCOCC6)nccc5[nH]4)cc3)c2)C1` [Compound B0700-614, (R)-4-((3-acrylamidopiperidin-1-yl)methyl)-N-(4-(4-morpholino-1H-pyrrolo[3,2-c]pyridin-2-yl)phenyl)picolinamide], the concentration for half-maximal inhibition (IC50) was determined as 0.554 µM in the assay on K-562 (setting [1]); 0.186 µM in the assay with K-562 (setting [4]); 0.923 µM in the assay with MOLM-13 (setting [2]); 0.523 µM in the assay with MOLM-13 (setting [5]); 0.696 µM in the assay on MV4-11 (setting [3]); 1.03 µM in the assay with MV4-11 (setting [6]).
As for `C=CC(=O)N1CCC(Nc2ccnc(C(=O)Nc3ccc(-c4cc5c(N6CCOCC6)ncnc5[nH]4)cc3)c2)CC1` [Compound B0700-616, 4-((1-acryloylpiperidin-4-yl)amino)-N-(4-(4-morpholino-7H-pyrrolo[2,3-d]pyrimidin-6-yl)phenyl)picolinamide], the half-maximal inhibitory concentration (IC50) in the assay on K-562 (setting [1]) worked out at 0.744 µM; with K-562 (setting [4]), 0.636 µM; with MOLM-13 (setting [2]), 0.154 µM; in the assay on MOLM-13 (setting [5]) it was 0.157 µM; in the assay with MV4-11 (setting [3]), 0.218 µM; with MV4-11 (setting [6]), 0.17 µM.
